Each structure is given as a SMILES string. Where two headings read alike, the source gives them in different places.

The source of these data is patent US8008291B2 (Mimetica Pty Ltd, priority 2008, dated 2011).

Assay [1] concerns the target T1, mouse MC5R (membrane) (Mus musculus, UniProt P41149).
T1 construct: purchased Euroscreen
In words: MC5R radioligand binding, mouse MC5R membranes.

Assay [2] addresses T2, rhesus monkey MC5R (whole cells) (Macaca mulatta, UniProt A0A5F8AEA9).
T2 construct: expressed in transfected cells
Description: MC5R radioligand binding, rhesus monkey MC5R whole cells.

The target in assay [3] is T3, rhesus monkey MC5R (membranes) (Macaca mulatta, UniProt A0A5F8AEA9).
T3 construct: expressed in transfected cells
T3 sequence (A0A5F8AEA9 1-325): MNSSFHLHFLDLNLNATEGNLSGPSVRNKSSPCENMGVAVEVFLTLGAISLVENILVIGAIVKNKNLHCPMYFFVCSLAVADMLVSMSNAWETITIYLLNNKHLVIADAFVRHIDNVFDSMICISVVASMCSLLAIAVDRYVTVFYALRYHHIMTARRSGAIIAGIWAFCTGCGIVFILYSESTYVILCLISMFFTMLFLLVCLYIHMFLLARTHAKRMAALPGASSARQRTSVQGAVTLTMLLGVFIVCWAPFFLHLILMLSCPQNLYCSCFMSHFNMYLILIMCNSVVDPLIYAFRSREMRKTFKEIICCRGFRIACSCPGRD
Description: MC5R radioligand binding, rhesus monkey MC5R membranes.

Assay [4] addresses hMC1R (Homo sapiens, UniProt Q01726). Description: Human MC1R radioligand binding assay. Particulars: hMCR binding selectivity, [125I] NDP-MSH, membranes. Here is the method:
(§1) • Na^125I (0.5 mCi, 17.4 Ci/mg) was added to 50 μL sodium phosphate (50 mM, pH7.4) in an eppendorf tube precoated with IODOGEN. After incubation for 10 mins the phosphate buffer containing the iodine was added to NDP-MSH (10 ul at 1 mg/mL) in a separate eppendorf tube. This was incubated for a further 10 mins. The iodinated NDP-MSH was purified by HPLC on a Zorbax SB 300 column using solvent A: 0.05% TFA and solvent B: 90% acetonitrile 0.045% TFA with a linear gradient, 0-67% B over 60 mins. […] Resuspended membranes were kept on ice until they were added to the wells of the plate. Binding Protocol for 400 microassays per vial: • Assays were performed in 96 well polypropylene plates. […] This was incubated for 1 hr at 37° C.
(§2) Radioligand binding assays were carried out using commercial or in-house prepared hMC1R, hMC3R and hMC4R membranes and [125I]
(§3) The homogenisation and ice incubation was repeated three times. The mixture was then centrifuged at 1260×g for 5 mins. […] This was centrifuged at 30,000×g for 90 mins at 4° C.

Assay [5] concerns the target hMC4R (Homo sapiens, UniProt P32245). In words: Human MC4R radioligand binding assay. Particulars: hMCR binding selectivity, [125I] NDP-MSH, membranes. As to the method: as §1, §2, §3
Assay [6] has as its target hMC3R (Homo sapiens, UniProt P41968). In words: Human MC3R radioligand binding assay. The settings on record: hMCR binding selectivity, [125I] NDP-MSH, membranes. Here is the method: as §1, §2, §3
The target of assay [7] is T4, human MC5R (Homo sapiens, UniProt P33032).
T4 construct: host or cells: HEK 293
T4 sequence (P33032 whole entry): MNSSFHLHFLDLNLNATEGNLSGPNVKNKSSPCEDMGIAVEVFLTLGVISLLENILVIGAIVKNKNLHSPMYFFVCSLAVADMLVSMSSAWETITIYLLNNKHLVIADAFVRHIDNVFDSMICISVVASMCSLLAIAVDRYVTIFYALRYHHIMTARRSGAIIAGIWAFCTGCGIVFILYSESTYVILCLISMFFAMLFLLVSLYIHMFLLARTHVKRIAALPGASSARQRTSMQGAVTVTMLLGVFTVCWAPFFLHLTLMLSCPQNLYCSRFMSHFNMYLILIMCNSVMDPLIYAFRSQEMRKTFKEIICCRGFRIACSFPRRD
In words: cAMP stimulation assay, agonism, HEK 293 cells expressing human MC5R. In kind it is cell-based.
Description: (§4) The mammalian cell line, human embryonic kidney cells (HEK 293), were maintained in Dulbeccos Modified Eagle's medium (DMEM) with 5% fetal bovine serum (BSA), L-glutamine, high glucose and antibiotics/antimycotics. On the day prior to transfection, cells were passaged using trypsin/EDTA and seeded into 75 cm^2 flasks so that they would be approximately 90% confluent the next day. The next day, the cell media was replaced with fresh antibiotic/antimycotic-containing DMEM. Approximately 100 μl of the transfection lipid Turbofectin 8.0 (Origene Technologies, MD, USA), was diluted in 1.0 mL of serum and antibiotic/antimycotic-free OptiMEM in a sterile 15 mL tube and incubated for 5 mins at room temperature. […]
(§5) Basal level (of cAMP) control wells contained stimulation buffer only (no agonist or compounds). […] After incubation, 10 μl of lysis buffer (10% Tween 20, 1 M HEPES, 0.1% BSA, protease inhibitors, ddH2O) was added to all wells to be measured. […] 5 μl of diluted acceptor beads were added to each well to be measured, then the plate was incubated for 30 mins at room temperature, in the dark, with gentle shaking. […] Plates were read on an Envision plate reader (Perkin Elmer) after 1 hr and ˜16hrs incubation. cAMP concentration in the cells was determined by the use of a ‘standard curve’ generated from the output of known cAMP concentrations as described below. […]

The target of assay [8] is T5, human MC5R (hMC5R) (Homo sapiens, UniProt P33032).
T5 construct: purchased Perkin Elmer RBXMC5M400UA
T5 sequence (P33032 whole entry): as above
Description: Human MC5R radioligand binding assay (membranes, [125I] NDP-MSH displacement). The essentials: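 Frozen human MC5R membranes incubated with test compound and in-house iodogen-labeled, HPLC-purified [125I]NDP-MSH for 1 hr at 37° C. Binding measured as displacement of the radioligand.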

Assay [9] addresses T4, human MC5R. Description: cAMP assay, antagonism of alpha-MSH, HEK 293 cells expressing human MC5R. In kind it is cell-based. The settings on record: antagonism of 10^−6 M alpha-MSH. On the technique in general: Cyclic AMP is a second messenger, typically raised through Gs and lowered through Gi signalling.
Description: as §4, §5
In assay [10] the test system is sebum excretion. Particulars: oral, after 8-12 weeks of therapy; cited from earlier work.
The mark [11] stands for this setting: hMC5R binding, tested as trifluoroacetate or hydrochloride salts, or free bases, read-out: MC5R radioligand IC50.

Chain of hMC3R (P41968 whole entry): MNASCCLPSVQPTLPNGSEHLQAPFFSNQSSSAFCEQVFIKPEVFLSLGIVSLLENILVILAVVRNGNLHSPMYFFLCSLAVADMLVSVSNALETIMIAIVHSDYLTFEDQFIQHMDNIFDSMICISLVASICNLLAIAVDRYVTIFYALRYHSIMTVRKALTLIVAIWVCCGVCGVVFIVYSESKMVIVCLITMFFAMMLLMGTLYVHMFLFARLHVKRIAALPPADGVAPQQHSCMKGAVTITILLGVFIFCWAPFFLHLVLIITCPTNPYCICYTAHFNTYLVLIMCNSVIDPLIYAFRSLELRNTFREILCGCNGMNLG
Chain of hMC1R (Q01726 whole entry): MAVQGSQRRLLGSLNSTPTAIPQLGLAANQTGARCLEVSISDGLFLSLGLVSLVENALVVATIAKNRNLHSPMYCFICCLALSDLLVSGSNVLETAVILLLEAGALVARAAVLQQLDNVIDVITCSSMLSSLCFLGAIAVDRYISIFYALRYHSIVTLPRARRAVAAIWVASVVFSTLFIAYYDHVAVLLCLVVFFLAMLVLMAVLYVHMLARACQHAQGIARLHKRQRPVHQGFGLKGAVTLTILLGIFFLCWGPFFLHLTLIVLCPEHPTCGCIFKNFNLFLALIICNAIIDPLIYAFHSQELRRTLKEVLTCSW
Chain of hMC4R (P32245 whole entry): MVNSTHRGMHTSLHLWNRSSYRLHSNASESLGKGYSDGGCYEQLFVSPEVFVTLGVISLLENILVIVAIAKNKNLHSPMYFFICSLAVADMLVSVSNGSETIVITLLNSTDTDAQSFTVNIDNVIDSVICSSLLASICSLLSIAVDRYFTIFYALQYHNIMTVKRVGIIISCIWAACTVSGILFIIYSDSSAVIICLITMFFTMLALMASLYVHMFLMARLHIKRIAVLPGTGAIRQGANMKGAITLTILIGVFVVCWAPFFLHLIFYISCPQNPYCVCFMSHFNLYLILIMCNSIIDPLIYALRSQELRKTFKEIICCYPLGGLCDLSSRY
T2 sequence (A0A5F8AEA9 1-325): as the sequence (A0A5F8AEA9 1-325) above
T1 sequence (P41149 whole entry): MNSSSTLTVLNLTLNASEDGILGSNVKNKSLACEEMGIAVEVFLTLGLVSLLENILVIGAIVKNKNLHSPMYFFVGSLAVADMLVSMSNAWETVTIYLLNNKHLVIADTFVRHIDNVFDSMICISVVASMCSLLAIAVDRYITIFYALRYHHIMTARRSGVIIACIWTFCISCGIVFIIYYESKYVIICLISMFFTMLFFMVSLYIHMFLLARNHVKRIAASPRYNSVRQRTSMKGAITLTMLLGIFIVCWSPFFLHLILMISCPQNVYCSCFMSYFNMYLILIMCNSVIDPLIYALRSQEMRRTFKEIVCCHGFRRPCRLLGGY

On to `N=C(N)NCCC[C@@H]1N[C@H](CNC(=O)c2ccc3ccccc3c2)CCN(CC(c2ccccc2)c2ccccc2)C1=O` [Compound 105, N-(((3S,5S)-1-(2,2-diphenylethyl)-3-(3-guanidinopropyl)-2-oxo-1,4-diazepan-5-yl)methyl)-2-naphthamide], for which the IC50 in assay [1] is 4000 nM; in assay [2], 3000 nM; in assay [3], 6030 nM; in assay [4], 6660 nM; in assay [5] it was 3280 nM. As to `CCC(CC)CN1CC[C@@H](CNC(=O)/C=C/c2ccc(Cl)cc2)N[C@@H](CCN2CCCCC2)C1=O` [Compound 331, (E)-3-(4-chlorophenyl)-N-(((3S,5S)-1-(2-ethylbutyl)-2-oxo-3-(2-(piperidin-1-yl)ethyl)-1,4-diazepan-5-yl)methyl)acrylamide], the IC50 in assay [6] is 1830 nM; in [8] (setting [11]) it was < 1000 nM; in [8] (hMCR binding selectivity, [125I] NDP-MSH, membranes, read-out: human MC5R IC50), 150 nM; in assay [9] it was 94 nM. Moreover, the concentration for a half-maximal effect (EC50) in [7] is > 10000 nM. As for `CC1=C(/C=C/C(C)=C/C=C/C(C)=C\C(=O)O)C(C)(C)CCC1` [isotretinoin], the “reduction of sebum excretion” value in assay [10] was “up to 90%”. On to `O=C(NC[C@@H]1CCN(CC(c2ccccc2)c2ccccc2)C(=O)[C@H](CCCN2CCCCC2)N1)c1ccc2ccccc2c1` [Compound 64, N-(((3S,5S)-1-(2,2-diphenylethyl)-2-oxo-3-(3-(piperidin-1-yl)propyl)-1,4-diazepan-5-yl)methyl)-2-naphthamide], for which the IC50 in [2] was > 5000 nM; in [3] it was 7310 nM. In the case of `O=C(/C=C/c1ccc(Cl)cc1)NC[C@@H]1CCN(CC(c2ccccc2)c2ccccc2)C(=O)[C@H](CCN2CCCCC2)N1` [Compound 33, (E)-3-(4-chlorophenyl)-N-(((3S,5S)-1-(2,2-diphenylethyl)-2-oxo-3-(2-(piperidin-1-yl)ethyl)-1,4-diazepan-5-yl)methyl)acrylamide], the values for the IC50 in assay [6], in [4] and in assay [5] were 1500 nM, 2850 nM and 6060 nM, respectively.

On to `CC[C@H](CN1CC[C@@H](CNC(=O)c2ccc3cc(Cl)ccc3c2)N[C@@H](CCN2CCCCC2)C1=O)c1ccsc1` [Compound 511, 6-chloro-N-(((3S,5S)-2-oxo-3-(2-(piperidin-1-yl)ethyl)-1-((S)-2-(thiophen-3-yl)butyl)-1,4-diazepan-5-yl)methyl)-2-naphthamide], for which, in assay [8] (setting [11]), the IC50 was < 10 nM. For `C=C(C)[C@H](CC)CN1CC[C@@H](CNC(=O)c2ccc3cc(Cl)ccc3c2)N[C@@H](CCN2CCCCC2)C1=O` [Compound 479, 6-chloro-N-(((3S,5S)-1-((S)-2-ethyl-3-methylbut-3-enyl)-2-oxo-3-(2-(piperidin-1-yl)ethyl)-1,4-diazepan-5-yl)methyl)-2-naphthamide], in [8] (setting [11]), the half-maximal inhibitory concentration (IC50) was < 10 nM. In the case of `CC[C@H](CN1CC[C@@H](CNC(=O)NCc2ccc(Cl)cc2)N[C@@H](CCN2CCCCC2)C1=O)c1ccccc1` [Compound 518], the IC50 in [8] (setting [11]) is < 1000 nM. As for `O=C(NCC[C@@H]1CCN(CC(c2ccccc2)c2ccccc2)C(=O)[C@H](CCN2CCCCC2)N1)c1ccc2ccccc2c1` [Compound 306, N-(2-((3S,5R)-1-(2,2-diphenylethyl)-2-oxo-3-(2-(piperidin-1-yl)ethyl)-1,4-diazepan-5-yl)ethyl)-2-naphthamide], the IC50 in [8] (setting [11]) is < 1000 nM. As to `O=C(NC[C@@H]1CCN(CC(c2ccccc2)c2ccccc2)C(=O)[C@H](CCN2CCCCC2)N1)c1cc(-c2ccc(Cl)cc2)on1` [Compound 414, 5-(4-chlorophenyl)-N-(((3S,5S)-1-(2,2-diphenylethyl)-2-oxo-3-(2-(piperidin-1-yl)ethyl)-1,4-diazepan-5-yl)methyl)isoxazole-3-carboxamide], in assay [8] (setting [11]), the IC50 was < 100 nM. Regarding `O=C(NC[C@@H]1CCN(CC(c2ccccc2)c2ccccc2)C(=O)[C@H](CCCN2CCCCC2)N1)c1ccc2cc(F)ccc2c1` [Compound 359, N-(((3S,5S)-1-(2,2-diphenylethyl)-2-oxo-3-(3-(piperidin-1-yl)propyl)-1,4-diazepan-5-yl)methyl)-6-fluoro-2-naphthamide], in [8] (setting [11]), the 50% inhibitory concentration (IC50) was < 100 nM.

Take `N=C(N)NCCC[C@@H]1N[C@H](CNC(=O)c2ccc3ccccc3c2)CCN(Cc2cc(F)cc(Cl)c2)C1=O` [Compound 310, N-(((3S,5S)-1-(3-chloro-5-fluorobenzyl)-3-(3-guanidinopropyl)-2-oxo-1,4-diazepan-5-yl)methyl)-2-naphthamide]: the IC50 in assay [8] (setting [11]) is < 1000 nM. On to `NCCC[C@@H]1N[C@H](CNC(=O)COc2ccc(F)cc2)CCN(CC(c2ccccc2)c2ccccc2)C1=O` [Compound 233, N-(((3S,5S)-3-(3-aminopropyl)-1-(2,2-diphenylethyl)-2-oxo-1,4-diazepan-5-yl)methyl)-2-(4-fluorophenoxy)acetamide], for which the IC50 in [8] (setting [11]) is < 1000 nM.

In the case of `CC(C)NCC[C@@H]1N[C@H](CNC(=O)/C=C/c2ccc(Cl)cc2)CCN(CC(c2ccccc2)c2ccccc2)C1=O` [Compound 381, (E)-3-(4-chlorophenyl)-N-(((3S,5S)-1-(2,2-diphenylethyl)-3-(2-(isopropylamino)ethyl)-2-oxo-1,4-diazepan-5-yl)methyl)acrylamide], in assay [8] (setting [11]), the IC50 was < 100 nM. The same measure, in the same setting: the same measure for `CCC(CC)CN1CC[C@@H](CNC(=O)c2ccc3cc(Cl)ccc3c2)N[C@@H](CCN2CCCCC2)C1=O` [Compound 373, 6-chloro-N-(((3S,5S)-1-(2-ethylbutyl)-2-oxo-3-(2-(piperidin-1-yl)ethyl)-1,4-diazepan-5-yl)methyl)-2-naphthamide]: < 100 nM. Consider `NCCC[C@@H]1N[C@H](CNC(=O)c2ccc3ccccc3c2)CCN(Cc2cc(F)cc(Cl)c2)C1=O` [Compound 312, N-(((3S,5S)-3-(3-aminopropyl)-1-(3-chloro-5-fluorobenzyl)-2-oxo-1,4-diazepan-5-yl)methyl)-2-naphthamide], for which the IC50 in assay [8] (setting [11]) was < 1000 nM.

As for `C=C(C)C(CC)CN1CC[C@@H](CNC(=O)c2ccc(Cl)c(Cl)c2)N[C@@H](CCN)C1=O` (stereo partly drawn) [Compound 475, N-(((3S,5S)-3-(2-aminoethyl)-1-(2-ethyl-3-methylbut-3-enyl)-2-oxo-1,4-diazepan-5-yl)methyl)-3,4-dichlorobenzamide], in assay [8] (setting [11]), the IC50 was < 10000 nM. For `CCC(C)(CC)CN1CC[C@@H](CNC(=O)c2ccc(Cl)c(Cl)c2)N[C@@H](CCN2CCCCC2)C1=O` [Compound 521, 3,4-dichloro-N-(((3S,5S)-1-(2-ethyl-2-methylbutyl)-2-oxo-3-(2-(piperidin-1-yl)ethyl)-1,4-diazepan-5-yl)methyl)benzamide], in [8] (setting [11]), the half-maximal inhibitory concentration (IC50) is < 100 nM. Take `CC[C@H](CN1CC[C@@H](CNC(=O)c2ccc(Cl)c(Cl)c2)N[C@@H](CCN2CC(C)CC(C)C2)C1=O)c1ccccc1` (stereo partly drawn) [Compound 449, 3,4-dichloro-N-(((3S,5S)-3-(2-(3,5-dimethylpiperidin-1-yl)ethyl)-2-oxo-1-((S)-2-phenylbutyl)-1,4-diazepan-5-yl)methyl)benzamide]: in assay [8] (setting [11]), the IC50 is < 100 nM. Consider `CCC(CN1CC[C@@H](CNC(=O)c2ccc3ccccc3c2)N[C@@H](CCCN2CCCCC2)C1=O)c1ccccc1` (stereo partly drawn) [Compound 342, N-(((3S,5S)-2-oxo-1-(2-phenylbutyl)-3-(3-(piperidin-1-yl)propyl)-1,4-diazepan-5-yl)methyl)-2-naphthamide], for which the IC50 in assay [8] (setting [11]) is < 100 nM. On to `O=C(/C=C/c1ccc(Br)cc1)NC[C@@H]1CCN(CC(c2ccccc2)c2ccccc2)C(=O)[C@H](CCN2CCCCC2)N1` [Compound 413, (E)-3-(4-bromophenyl)-N-(((3S,5S)-1-(2,2-diphenylethyl)-2-oxo-3-(2-(piperidin-1-yl)ethyl)-1,4-diazepan-5-yl)methyl)acrylamide], for which, in assay [8] (setting [11]), the IC50 was < 10 nM.

`CCC(CC)CN1CC[C@@H](CNC(=O)c2ccc3ccccc3c2)N[C@@H](CCCNC(=N)N)C1=O` [Compound 297, N-(((3S,5S)-1-(2-ethylbutyl)-3-(3-guanidinopropyl)-2-oxo-1,4-diazepan-5-yl)methyl)-2-naphthamide]: the IC50 in assay [8] (setting [11]) was < 1000 nM. `N=C(N)NCCC[C@@H]1N[C@H](CNC(=O)c2ccc(-c3ccccc3)cc2)CCN(CC(c2ccccc2)c2ccccc2)C1=O` [Compound 108, N-(((3S,5S)-1-(2,2-diphenylethyl)-3-(3-guanidinopropyl)-2-oxo-1,4-diazepan-5-yl)methyl)biphenyl-4-carboxamide]: in [8] (setting [11]), the IC50 is < 100 nM.

One may read the IC50 as the midpoint of a concentration-inhibition curve. Usually EC50 stands for the concentration at which the effect is half-maximal.
